Usually IC50 stands for the concentration that gives 50% inhibition.

Results on four compounds are retold here after US7893063B2, “2,4,6-trisubstituted pyrimidines as phosphotidylinositol (PI) 3-kinase inhibitors and their use in the treatment of cancer” (AstraZeneca AB, priority 2004, dated 2011).

The test system of assay [1] is phosphorylation of Serine 473 in Akt. Briefly: In vitro phospho-Ser473 Akt assay, Test (b). It counts as cell-based. Particulars: Homo sapiens, MDA-MB-468 cells, 2 hours incubation, read-out: IC50, inhibition of phosphorylation of Serine 473 in Akt. The method, then: (b) In Vitro Phospho-Ser473 Akt Assay
This assay determines the ability of test compounds to inhibit phosphorylation of Serine 473 in Akt as assessed using Acumen Explorer technology (Acumen Bioscience Limited), a plate reader that can be used to rapidly quantitate features of images generated by laser-scanning.
A MDA-MB-468 human breast adenocarcinoma cell line (LGC Promochem, Teddington, Middlesex, UK, Catalogue No. HTB-132) was routinely maintained at 37° C. with 5% CO2 up to a confluency of 70-90% in Dulbecco's modified Eagle's growth medium (DMEM; Invitrogen Limited, Paisley, UK Catalogue No. 41966-029) containing 10% heat-inactivated foetal calf serum (FCS; Sigma, Poole, Dorset, UK, Catalogue No. F0392) and 1% L-glutamine (Gibco, Catalogue No. 25030-024).
For the assay, the cells were detached from the culture flask using ‘Accutase’ (Innovative Cell Technologies Inc., San Diego, Calif., USA; Catalogue No. AT104) using standard tissue culture methods and resuspended in media to give 1.7×10^5 cells per ml. Aliquots (90 μl) were seeded into each of the inner 60 wells of a black Packard 96 well plate (PerkinElmer, Boston, Mass., USA; Catalogue No. 6005182) to give a density of ˜15000 cells per well. Aliquots (90 μl) of culture media were placed in the outer wells to prevent edge effects. The cells were incubated overnight at 37° C. with 5% CO2 to allow them to adhere.
On day 2, the cells were treated with test compounds and incubated for 2 hours at 37° C. with 5% CO2. Test compounds were prepared as 10 mM stock solutions in DMSO and serially diluted as required with growth media to give a range of concentrations that were 10-fold the required final test concentrations. Aliquots (10 μl) of each compound dilution were placed in a well (in triplicate) to give the final required concentrations. […]
All subsequent aspiration and wash steps were carried out using a Tecan 96 well plate washer (aspiration speed 10 mm/sec). […] An aliquot of PBS (50 μl) was added to each well and the plates were sealed with black plate sealers and the fluorescence signal was detected and analysed. […]

In the next assay the target is T1, p110α Type Ia human PI3K (Homo sapiens, UniProt P42336).
T1 construct: full length DNA of each of the p110α, p110β and p110δ Type Ia human PI3K p110 isoforms; 6-His; made in house; Grp1 PH domain in E. coli
The assay can be described thus: In vitro enzyme assay (AlphaScreen), Test (a). Format: biochemical. The following applies: recombinant enzyme, PI(4,5)P2 substrate, ATP 4 μM, read-out: IC50 versus p110α Type Ia human PI3K. From the text: (a) In Vitro Enzyme Assay
The assay used AlphaScreen technology (Gray et al., Analytical Biochemistry, 2003, 313: 234-245) to determine the ability of test compounds to inhibit phosphorylation by recombinant Type I PI3K enzymes of the lipid PI(4,5)P2.
DNA fragments encoding human PI3K catalytic and regulatory subunits were isolated from cDNA libraries using standard molecular biology and PCR cloning techniques. The selected DNA fragments were used to generate baculovirus expression vectors. In particular, full length DNA of each of the p110α, p110β and p110δ Type Ia human PI3K p110 isoforms (EMBL Accession Nos. HSU79143, S67334, Y10055 for p110α, p110β and p110δ respectively) were sub-cloned into a pDEST10 vector (Invitrogen Limited, Fountain drive, Paisley, UK). The vector is a Gateway-adapted version of Fastbac1 containing a 6-His epitope tag. A truncated form of Type Ib human PI3K p110γ isoform corresponding to amino acid residues 144-1102 (EMBL Accession No. X8336A) and the full length human p85α regulatory subunit (EMBL Accession No. HSP13KIN) were also sub-cloned into pFastBac1 vector containing a 6-His epitope tag. The Type Ia p110 constructs were co-expressed with the p85α regulatory subunit. Following expression in the baculovirus system using standard baculovirus expression techniques, expressed proteins were purified using the His epitope tag using standard purification techniques.
DNA corresponding to amino acids 263 to 380 of human Grp1 PH domain was isolated from a cDNA library using standard molecular biology and PCR cloning techniques. The resultant DNA fragment was sub-cloned into a pGEX 4T1 E. coli expression vector containing a GST epitope tag (Amersham Pharmacia Biotech, Rainham, Essex, UK) as described by Gray et al., Analytical Biochemistry, 2003, 313: 234-245). The GST-tagged Grp1 PH domain was expressed and purified using standard techniques.
Test compounds were prepared as 10 mM stock solutions in DMSO and diluted into water as required to give a range of final assay concentrations. Aliquots (2 μl) of each compound dilution were placed into a well of a Greiner 384-well low volume (LV) white polystyrene plate (Greiner Bio-one, Brunel Way, Stonehouse, Gloucestershire, UK Catalogue No. 784075). […]
Biotinylated-DiC8-PI(3,4,5)P3 (50 nM; Cell Signals Inc., Catalogue No. 107), recombinant purified GST-Grp1 PH protein (2.5 nM) and AlphaScreen Anti-GST donor and acceptor beads (100 ng; Packard Bioscience Limited, Station Road, Pangbourne, Berkshire, UK, Catalogue No. 6760603M) were added and the assay plates were left for about 5 to 20 hours at ambient temperature in the dark. The resultant signals arising from laser light excitation at 680 nm were read using a Packard AlphaQuest instrument. […]
Background: Alpha assays give light when donor and acceptor beads are brought close together.

T1 sequence (P42336 whole entry, the tested form may be a part, canonical isoform): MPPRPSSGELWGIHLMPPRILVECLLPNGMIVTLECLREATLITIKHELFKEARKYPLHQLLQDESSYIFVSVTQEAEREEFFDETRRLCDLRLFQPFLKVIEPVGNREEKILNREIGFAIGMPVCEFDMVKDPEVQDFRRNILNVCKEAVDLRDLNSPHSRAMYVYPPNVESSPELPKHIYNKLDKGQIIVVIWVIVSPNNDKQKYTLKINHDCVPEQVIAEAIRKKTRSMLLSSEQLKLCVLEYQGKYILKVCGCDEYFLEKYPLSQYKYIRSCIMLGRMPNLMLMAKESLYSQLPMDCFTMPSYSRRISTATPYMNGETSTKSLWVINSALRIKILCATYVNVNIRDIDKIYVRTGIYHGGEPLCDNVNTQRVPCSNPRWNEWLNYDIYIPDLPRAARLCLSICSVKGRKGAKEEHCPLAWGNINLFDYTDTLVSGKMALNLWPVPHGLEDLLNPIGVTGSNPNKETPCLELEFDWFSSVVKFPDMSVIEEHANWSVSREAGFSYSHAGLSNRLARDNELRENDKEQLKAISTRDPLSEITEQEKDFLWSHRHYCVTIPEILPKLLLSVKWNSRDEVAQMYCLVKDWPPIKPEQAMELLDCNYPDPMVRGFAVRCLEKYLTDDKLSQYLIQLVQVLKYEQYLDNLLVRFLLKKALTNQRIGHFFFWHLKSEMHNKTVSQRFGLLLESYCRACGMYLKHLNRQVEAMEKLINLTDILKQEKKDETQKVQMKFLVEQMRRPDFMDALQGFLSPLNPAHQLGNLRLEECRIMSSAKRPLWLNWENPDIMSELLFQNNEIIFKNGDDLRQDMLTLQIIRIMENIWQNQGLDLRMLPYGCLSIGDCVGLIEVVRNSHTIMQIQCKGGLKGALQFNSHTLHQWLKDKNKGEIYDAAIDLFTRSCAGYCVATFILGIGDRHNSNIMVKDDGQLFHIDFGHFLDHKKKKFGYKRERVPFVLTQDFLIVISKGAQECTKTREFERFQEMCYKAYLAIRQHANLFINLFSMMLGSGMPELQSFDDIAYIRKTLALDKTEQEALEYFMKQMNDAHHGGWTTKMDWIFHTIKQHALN
T1 sequence (P27986 whole entry partner, the tested form may be a part, canonical isoform): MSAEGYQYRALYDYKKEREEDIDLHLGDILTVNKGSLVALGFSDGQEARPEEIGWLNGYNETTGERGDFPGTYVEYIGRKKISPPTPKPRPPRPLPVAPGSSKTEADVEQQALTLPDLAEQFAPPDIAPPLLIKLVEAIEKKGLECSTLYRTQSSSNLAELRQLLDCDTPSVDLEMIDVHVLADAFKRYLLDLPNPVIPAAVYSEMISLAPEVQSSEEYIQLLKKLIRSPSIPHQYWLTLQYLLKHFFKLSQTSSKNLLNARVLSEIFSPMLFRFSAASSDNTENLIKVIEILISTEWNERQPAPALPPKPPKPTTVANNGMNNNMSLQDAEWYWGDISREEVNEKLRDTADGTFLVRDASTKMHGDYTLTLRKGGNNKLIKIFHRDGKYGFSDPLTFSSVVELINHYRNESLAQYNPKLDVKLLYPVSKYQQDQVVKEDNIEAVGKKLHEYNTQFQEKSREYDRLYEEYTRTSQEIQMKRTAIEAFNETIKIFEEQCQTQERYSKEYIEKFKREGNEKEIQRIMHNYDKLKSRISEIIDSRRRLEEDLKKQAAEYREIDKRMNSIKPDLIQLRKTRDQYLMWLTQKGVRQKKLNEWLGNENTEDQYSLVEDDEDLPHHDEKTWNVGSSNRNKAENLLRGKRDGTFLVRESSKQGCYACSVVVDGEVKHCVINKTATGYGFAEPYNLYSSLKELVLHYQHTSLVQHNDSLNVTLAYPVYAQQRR

With `O=C(Nc1cccc(-c2nc(-c3ccc(CO)s3)cc(N3CCOCC3)n2)c1)C1CCNCC1` [Example 1, 4-(5-hydroxymethylthien-2-yl)-6-morpholino-2-(3-piperidin-4-ylcarbonylaminophenyl)pyrimidine], the IC50 in assay [1] was ~50 µM; at p110α Type Ia human PI3K, ~10 µM.
For `COc1ncc(-c2cc(N3CCOCC3)nc(-c3cccc(NC(C)=O)c3)n2)cn1` [Example 2, 2-(3-acetamidophenyl)-4-(2-methoxypyrimidin-5-yl)-6-morpholinopyrimidine], in that order: ~28 µM and ~12 µM.
For the compound `O=C(Nc1cccc(-c2cc(N3CCOCC3)nc(-c3ccc(CO)o3)n2)c1)C1CCCNC1` (stereo not shown) [Example 4, 2-(5-hydroxymethylfuran-2-yl)-6-morpholino-4-(3-piperidin-3-ylcarbonylaminophenyl)pyrimidine], the IC50 on p110α Type Ia human PI3K was ~0.6 µM.
As to `O=C(Nc1cccc(-c2nc(-c3ccc(CO)o3)cc(N3CCOCC3)n2)c1)C1CCNCC1` [Example 5, 4-(5-hydroxymethylfuran-2-yl)-6-morpholino-2-(3-piperidin-4-ylcarbonylaminophenyl)pyrimidine], the figures for the IC50 (in assay [1]; on p110α Type Ia human PI3K) were ~1 µM and ~0.5 µM, respectively.
